In ChEMBL document CHEMBL1201862, “PubChem BioAssay data set” (2004):
Active and inactive are the calls of the source.

How the values were obtained:
[1] = molecular target: T1, Probable nicotinate-nucleotide adenylyltransferase (Staphylococcus aureus (strain N315), UniProt P65502); type: functional, Staphylococcus aureus subsp. aureus N315;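 for IC50 Mean: confirmatory dose-response retesting of NadD inhibitor hits first found in an ultra-high-throughput screen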
[2] = molecular target: T1, Probable nicotinate-nucleotide adenylyltransferase; type: functional, Staphylococcus aureus subsp. aureus N315; settings: read-out: IC50_Mean
[3] = molecular target: T2, Runt-related transcription factor 1/Core-binding factor subunit beta (Homo sapiens, UniProt Q01196+Q13951); test: inhibitors of RUNX1 Runt–CBFb-SMMHC binding, biochemical, TR-FRET (AID 1438); type: protein assay
[4] = molecular target: T2, Runt-related transcription factor 1/Core-binding factor subunit beta; test: inhibitors of RUNX1 Runt–CBFb-SMMHC binding, primary screen, biochemical, FRET, Cerulean-Runt, Venus-CBFb-SMMHC, uHTS (AID 1434); type: protein assay;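 note: partner is the CBFb-SMMHC leukemia fusion protein rather than wild-type CBFb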
[5] = molecular target: T3, Low molecular weight phosphotyrosine protein phosphatase (Homo sapiens, UniProt P24666); type: functional; settings: read-out: IC50_Mean;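 note: Dose-response confirmation assay measuring inhibition of LMPTP enzyme activity by fluorescence intensity read-out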
T3 sequence (P24666 whole entry): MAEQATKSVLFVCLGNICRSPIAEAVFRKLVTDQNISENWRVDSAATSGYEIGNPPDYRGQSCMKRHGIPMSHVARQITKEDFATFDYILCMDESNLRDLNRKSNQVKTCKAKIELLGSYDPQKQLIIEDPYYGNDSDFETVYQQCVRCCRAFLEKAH

[6] = molecular target: Induced myeloid leukemia cell differentiation protein Mcl-1 (Homo sapiens, UniProt Q07820); type: functional
[7] = molecular target: T4, Corticotropin-releasing factor receptor 2/Corticotropin-releasing factor-binding protein (Homo sapiens, UniProt P24387+Q13324); test: activators of CRF receptor 2 with binding protein – uHTS hits, confirmation (AID 602473); type: functional; settings: read-out: EC50_Mean
T4 sequence (Q13324 whole entry): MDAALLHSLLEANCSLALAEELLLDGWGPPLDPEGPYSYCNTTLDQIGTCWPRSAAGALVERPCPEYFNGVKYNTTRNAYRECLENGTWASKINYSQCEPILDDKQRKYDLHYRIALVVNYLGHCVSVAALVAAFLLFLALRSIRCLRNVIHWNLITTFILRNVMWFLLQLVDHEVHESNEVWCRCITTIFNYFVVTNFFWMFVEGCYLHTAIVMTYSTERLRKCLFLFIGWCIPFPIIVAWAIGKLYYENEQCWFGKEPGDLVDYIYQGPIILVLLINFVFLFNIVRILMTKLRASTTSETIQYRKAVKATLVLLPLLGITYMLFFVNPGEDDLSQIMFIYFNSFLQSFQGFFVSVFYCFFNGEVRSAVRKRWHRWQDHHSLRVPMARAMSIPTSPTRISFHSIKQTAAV
T4 sequence (P24387 whole entry): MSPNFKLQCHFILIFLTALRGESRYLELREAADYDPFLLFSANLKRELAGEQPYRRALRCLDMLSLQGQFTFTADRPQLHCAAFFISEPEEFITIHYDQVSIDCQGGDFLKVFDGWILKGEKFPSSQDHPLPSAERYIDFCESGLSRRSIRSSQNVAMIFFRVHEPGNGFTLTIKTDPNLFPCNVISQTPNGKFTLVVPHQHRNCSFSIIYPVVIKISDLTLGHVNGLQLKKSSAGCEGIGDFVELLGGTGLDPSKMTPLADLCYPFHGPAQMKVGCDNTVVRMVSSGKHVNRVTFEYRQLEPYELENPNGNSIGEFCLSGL

[8] = molecular target: Lysine-specific demethylase 4C (Homo sapiens, UniProt Q9H3R0); test: GASC-1 (JMJD2C) histone demethylase inhibitors, dose response, biochemical, DELFIA europium, cherry-picked samples (AID 488835); type: functional
[9] = molecular target: T5, Tyrosine-protein phosphatase non-receptor type 22 (Homo sapiens, UniProt Q9Y2R2); type: functional
T5 sequence (Q9Y2R2 whole entry): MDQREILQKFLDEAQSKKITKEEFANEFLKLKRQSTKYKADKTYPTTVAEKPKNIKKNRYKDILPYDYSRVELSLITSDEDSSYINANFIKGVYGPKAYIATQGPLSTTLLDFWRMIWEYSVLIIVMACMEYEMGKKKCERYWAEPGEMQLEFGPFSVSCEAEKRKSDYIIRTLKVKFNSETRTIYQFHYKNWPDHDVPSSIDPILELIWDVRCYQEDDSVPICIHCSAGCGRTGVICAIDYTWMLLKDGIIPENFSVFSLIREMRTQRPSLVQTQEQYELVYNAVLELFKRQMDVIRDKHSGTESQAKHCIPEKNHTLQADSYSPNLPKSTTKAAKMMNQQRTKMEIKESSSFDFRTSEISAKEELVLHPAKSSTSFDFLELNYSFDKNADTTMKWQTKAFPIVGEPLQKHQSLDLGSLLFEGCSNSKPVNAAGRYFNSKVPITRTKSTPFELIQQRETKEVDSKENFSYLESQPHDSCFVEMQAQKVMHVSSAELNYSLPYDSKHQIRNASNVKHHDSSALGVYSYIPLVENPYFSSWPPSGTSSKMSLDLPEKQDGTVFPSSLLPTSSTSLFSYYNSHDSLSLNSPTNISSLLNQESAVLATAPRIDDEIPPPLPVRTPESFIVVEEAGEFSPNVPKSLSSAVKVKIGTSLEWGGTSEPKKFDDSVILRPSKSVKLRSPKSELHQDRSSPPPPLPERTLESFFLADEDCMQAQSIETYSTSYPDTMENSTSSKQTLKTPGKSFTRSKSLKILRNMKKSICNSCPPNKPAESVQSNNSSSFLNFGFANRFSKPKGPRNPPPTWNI

[10] = molecular target: T5, Tyrosine-protein phosphatase non-receptor type 22; type: functional; remark: listed apart in the source
[11] = molecular target: T6, Tyrosine-protein phosphatase non-receptor type 7 (Homo sapiens, UniProt P35236); type: functional
T6 sequence (P35236 whole entry): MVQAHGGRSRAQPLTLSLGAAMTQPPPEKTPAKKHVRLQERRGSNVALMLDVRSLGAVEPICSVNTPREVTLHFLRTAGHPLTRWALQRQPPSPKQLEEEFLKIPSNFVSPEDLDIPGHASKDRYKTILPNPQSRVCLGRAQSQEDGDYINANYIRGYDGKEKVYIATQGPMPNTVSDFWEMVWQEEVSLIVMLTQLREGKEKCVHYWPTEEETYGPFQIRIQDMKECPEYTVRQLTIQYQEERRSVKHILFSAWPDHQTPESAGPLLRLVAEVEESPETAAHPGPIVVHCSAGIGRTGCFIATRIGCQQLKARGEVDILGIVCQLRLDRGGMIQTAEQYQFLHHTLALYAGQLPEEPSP

[12] = molecular target: T7, Peroxisome proliferator-activated receptor gamma (Homo sapiens, UniProt P37231); test: PPARg ligand-binding domain binders, dose response, PPARg partial agonist project, biochemical, fluorescence polarization, PolarScreen (AID 504453)
T7 sequence (P37231 whole entry): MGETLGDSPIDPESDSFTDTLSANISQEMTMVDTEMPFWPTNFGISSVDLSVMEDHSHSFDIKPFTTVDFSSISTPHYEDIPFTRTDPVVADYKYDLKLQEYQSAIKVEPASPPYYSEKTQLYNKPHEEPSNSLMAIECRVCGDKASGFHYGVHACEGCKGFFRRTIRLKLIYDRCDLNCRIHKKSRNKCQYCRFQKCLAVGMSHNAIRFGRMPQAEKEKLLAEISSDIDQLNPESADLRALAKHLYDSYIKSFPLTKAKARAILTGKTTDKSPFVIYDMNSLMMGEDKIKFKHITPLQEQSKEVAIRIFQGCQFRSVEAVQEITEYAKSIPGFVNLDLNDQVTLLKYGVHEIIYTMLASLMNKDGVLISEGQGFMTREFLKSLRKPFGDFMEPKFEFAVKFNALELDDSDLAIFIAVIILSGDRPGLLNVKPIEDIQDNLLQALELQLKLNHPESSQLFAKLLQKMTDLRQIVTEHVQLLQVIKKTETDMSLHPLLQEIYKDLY

[13] = molecular target: T7, Peroxisome proliferator-activated receptor gamma; test: PPARg ligand-binding domain binders, dose response, PPARg partial agonist project, biochemical, TR-FRET, LanthaScreen (AID 504446)
[14] = molecular target: T7, Peroxisome proliferator-activated receptor gamma; test: PPARg partial agonists, dose response, cell-based, luminescence, assay provider (AID 504447); type: functional
[15] = molecular target: T8, G-protein coupled receptor 35 (Homo sapiens, UniProt Q9HC97); test: SAR analysis of Antagonists of the GPR35 Receptor using an Image-Based Assay - Set 6. [Related pubchem assays (depositor defined):AID2013, AID2026]; type: functional
[16] = molecular target: T9, Cannabinoid receptor 1 (Homo sapiens, UniProt P21554); test: SAR analysis of antagonists of the Cannabinoid Receptor 1 using an Image-Based Assay - Set 4. [Related pubchem assays (depositor defined):AID2013, AID2026]; type: functional
[17] = molecular target: T9, Cannabinoid receptor 1; test: SAR analysis of agonists of the Cannabinoid Receptor 1 using an Image-Based Assay - Set 4. [Related pubchem assays (depositor defined):AID2013, AID2026]; type: functional
[18] = molecular target: T8, G-protein coupled receptor 35; test: SAR analysis of Agonists of the GPR35 Receptor using an Image-Based Assay - Set 4. [Related pubchem assays (depositor defined):AID2013, AID2026]; type: functional
[19] = molecular target: T10, Cannabinoid receptor 2 (Homo sapiens, UniProt P34972); test: SAR analysis of antagonists of the Cannabinoid Receptor 2 using an Image-Based Assay - Set 3. [Related pubchem assays (depositor defined):AID2013, AID2026]; type: functional
[20] = molecular target: T10, Cannabinoid receptor 2; test: SAR analysis of agonists of the Cannabinoid Receptor 2 using an Image-Based Assay - Set 3. [Related pubchem assays (depositor defined):AID2013, AID2026]; type: functional
[21] = molecular target: G-protein coupled receptor 55 (Homo sapiens, UniProt Q9Y2T6); test: SAR Analysis of Selective Antagonists of GPR55 using an Image-Based Assay - Set 4. [Related pubchem assays (depositor defined):AID2013, AID2026]; type: functional;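 note: antagonism of response to 5 µM lysophosphatidylinositol agonist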
[22] = molecular target: T11, Kappa-type opioid receptor (Homo sapiens, UniProt P41145); test: KOR antagonists by imaging, SAR follow-up, image-based (AID 2348); type: functional
[23] = molecular target: T12, Delta-type opioid receptor (Homo sapiens, UniProt P41143); test: DOR agonists, SAR follow-up, image-based (AID 2370); type: functional
[24] = molecular target: T11, Kappa-type opioid receptor; test: SAR analysis of small molecule agonists of the kappa opioid receptor via a luminescent beta-arrestin assay. [Related pubchem assays (depositor defined):AID1777, AID1786, AID1966, AID2133, AID2136, AID2348, AID2352, AID2357, AID2359, AID2370, AID2420, AID2478, AID2491, AID2492, AID2493, AID2497, AID2498, AID2500, AID449737, AID488822, AID488842]; type: functional
[25] = molecular target: T12, Delta-type opioid receptor; test: DOR antagonists, SAR follow-up, image-based (AID 2357); type: functional
[26] = molecular target: T13, Mu-type opioid receptor (Homo sapiens, UniProt P35372); test: MOR antagonists, SAR follow-up, image-based (AID 2420); type: functional;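 note: compounds added before stimulation of receptor with agonist DAMGO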
[27] = molecular target: T13, Mu-type opioid receptor; test: MOR agonists by imaging, SAR follow-up, image-based (AID 2352); type: functional
[28] = molecular target: Potassium voltage-gated channel subfamily KQT member 2 (Rattus norvegicus, UniProt O88943); test: KCNQ2 channel activators, analog series, SAR follow-up, automated patch clamp, KCNQ2-CHO cells (AID 493113); type: functional
[29] = molecular target: Large T antigen (Simian virus 40, UniProt P03070); type: functional, Betapolyomavirus macacae;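 note: Confirmatory-stage PubChem screen for compounds that inhibit SV40 T antigen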
[30] = molecular target: Alkaline phosphatase, tissue-nonspecific isozyme (Homo sapiens, UniProt P05186); test: TNAP enzyme inhibition by screening hits, dose response, selectivity assay for mouse IAP inhibitor project, biochemical, human TNAP, uHTS hits (AID 488906); type: functional
[31] = molecular target: Intestinal-type alkaline phosphatase (Mus musculus, UniProt P24822); test: PubChem AID 488785; type: functional
[32] = molecular target: Intestinal-type alkaline phosphatase (Homo sapiens, UniProt P09923); test: inhibition of human intestinal alkaline phosphatase – biochemical, dose response (AID 488876); type: functional
Chain of Intestinal-type alkaline phosphatase (Homo sapiens, UniProt P09923) (P09923 whole entry): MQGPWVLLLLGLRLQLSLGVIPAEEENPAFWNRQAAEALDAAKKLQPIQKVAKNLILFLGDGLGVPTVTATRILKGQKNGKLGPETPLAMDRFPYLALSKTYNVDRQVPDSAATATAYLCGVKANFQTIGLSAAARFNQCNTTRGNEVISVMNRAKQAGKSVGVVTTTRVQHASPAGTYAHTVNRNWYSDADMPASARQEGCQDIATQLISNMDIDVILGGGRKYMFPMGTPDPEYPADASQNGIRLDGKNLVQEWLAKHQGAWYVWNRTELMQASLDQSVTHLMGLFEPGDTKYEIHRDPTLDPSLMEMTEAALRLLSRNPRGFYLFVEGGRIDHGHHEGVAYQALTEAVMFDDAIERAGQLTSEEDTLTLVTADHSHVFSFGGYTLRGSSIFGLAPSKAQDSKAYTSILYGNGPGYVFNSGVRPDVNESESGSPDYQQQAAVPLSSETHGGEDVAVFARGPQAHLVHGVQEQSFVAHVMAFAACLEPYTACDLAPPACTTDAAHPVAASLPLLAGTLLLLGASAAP

T11 sequence (P41145 whole entry): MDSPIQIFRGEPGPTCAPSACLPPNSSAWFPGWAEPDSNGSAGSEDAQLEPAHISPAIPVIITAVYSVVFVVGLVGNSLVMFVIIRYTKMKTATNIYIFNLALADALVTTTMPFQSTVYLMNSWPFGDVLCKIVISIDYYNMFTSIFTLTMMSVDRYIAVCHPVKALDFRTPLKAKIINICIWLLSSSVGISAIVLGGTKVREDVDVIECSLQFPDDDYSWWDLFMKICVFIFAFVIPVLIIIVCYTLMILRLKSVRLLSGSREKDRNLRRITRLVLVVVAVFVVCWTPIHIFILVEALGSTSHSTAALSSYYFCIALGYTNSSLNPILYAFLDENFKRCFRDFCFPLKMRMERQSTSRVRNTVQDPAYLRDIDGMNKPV
T2 sequence (Q01196 whole entry, the tested form may be a part): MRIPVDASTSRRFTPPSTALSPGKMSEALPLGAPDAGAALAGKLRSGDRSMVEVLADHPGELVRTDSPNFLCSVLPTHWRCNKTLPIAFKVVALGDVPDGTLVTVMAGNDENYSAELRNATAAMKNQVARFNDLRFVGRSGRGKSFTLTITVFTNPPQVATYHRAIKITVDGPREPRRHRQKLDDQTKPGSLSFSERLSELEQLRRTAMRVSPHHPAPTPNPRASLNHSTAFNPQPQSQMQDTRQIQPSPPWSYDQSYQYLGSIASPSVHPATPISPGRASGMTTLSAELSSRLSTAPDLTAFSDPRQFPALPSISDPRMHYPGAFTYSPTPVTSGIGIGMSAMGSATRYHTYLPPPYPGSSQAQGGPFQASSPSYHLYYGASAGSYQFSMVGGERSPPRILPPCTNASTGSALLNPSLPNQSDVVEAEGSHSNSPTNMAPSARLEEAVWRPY
T2 sequence (Q13951 whole entry, the tested form may be a part): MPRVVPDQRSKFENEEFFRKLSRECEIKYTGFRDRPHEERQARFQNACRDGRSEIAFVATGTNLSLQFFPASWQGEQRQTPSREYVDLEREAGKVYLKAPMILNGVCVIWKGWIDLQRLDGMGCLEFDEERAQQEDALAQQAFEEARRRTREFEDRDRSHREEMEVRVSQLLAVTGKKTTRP
T8 sequence (Q9HC97 whole entry): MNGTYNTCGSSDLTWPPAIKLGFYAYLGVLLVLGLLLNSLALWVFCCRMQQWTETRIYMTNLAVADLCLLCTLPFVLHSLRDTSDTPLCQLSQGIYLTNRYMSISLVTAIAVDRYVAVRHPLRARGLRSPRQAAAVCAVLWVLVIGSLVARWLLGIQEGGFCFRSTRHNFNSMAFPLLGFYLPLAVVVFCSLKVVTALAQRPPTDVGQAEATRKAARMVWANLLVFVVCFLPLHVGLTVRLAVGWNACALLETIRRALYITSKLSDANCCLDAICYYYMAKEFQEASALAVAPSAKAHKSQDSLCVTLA
T12 sequence (P41143 whole entry): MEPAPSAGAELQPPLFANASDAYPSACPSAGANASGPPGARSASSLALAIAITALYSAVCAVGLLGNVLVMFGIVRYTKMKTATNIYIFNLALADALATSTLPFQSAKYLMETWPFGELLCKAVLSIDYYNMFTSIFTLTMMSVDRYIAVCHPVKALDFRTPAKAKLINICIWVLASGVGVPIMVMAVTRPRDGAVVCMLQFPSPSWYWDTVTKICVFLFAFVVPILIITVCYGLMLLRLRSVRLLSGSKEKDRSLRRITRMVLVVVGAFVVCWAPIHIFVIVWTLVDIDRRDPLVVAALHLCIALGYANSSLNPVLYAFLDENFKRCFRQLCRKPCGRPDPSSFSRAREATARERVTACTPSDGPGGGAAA
T1 sequence (P65502 whole entry): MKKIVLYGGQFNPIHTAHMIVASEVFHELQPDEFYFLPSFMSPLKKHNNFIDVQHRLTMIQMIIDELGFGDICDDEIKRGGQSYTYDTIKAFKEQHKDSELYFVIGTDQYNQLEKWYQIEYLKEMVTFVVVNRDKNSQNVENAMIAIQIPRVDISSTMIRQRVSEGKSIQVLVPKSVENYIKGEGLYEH
T13 sequence (P35372 whole entry): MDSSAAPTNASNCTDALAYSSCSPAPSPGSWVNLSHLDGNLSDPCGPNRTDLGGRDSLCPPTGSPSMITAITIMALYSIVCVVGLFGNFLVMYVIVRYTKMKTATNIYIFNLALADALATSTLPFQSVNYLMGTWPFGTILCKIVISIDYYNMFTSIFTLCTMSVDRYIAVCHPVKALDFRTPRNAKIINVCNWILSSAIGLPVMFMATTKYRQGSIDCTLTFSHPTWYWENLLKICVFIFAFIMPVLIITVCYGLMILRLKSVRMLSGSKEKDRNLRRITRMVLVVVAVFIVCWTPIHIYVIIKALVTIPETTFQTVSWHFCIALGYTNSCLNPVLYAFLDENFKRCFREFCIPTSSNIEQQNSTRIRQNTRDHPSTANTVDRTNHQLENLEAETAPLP
T9 sequence (P21554 whole entry): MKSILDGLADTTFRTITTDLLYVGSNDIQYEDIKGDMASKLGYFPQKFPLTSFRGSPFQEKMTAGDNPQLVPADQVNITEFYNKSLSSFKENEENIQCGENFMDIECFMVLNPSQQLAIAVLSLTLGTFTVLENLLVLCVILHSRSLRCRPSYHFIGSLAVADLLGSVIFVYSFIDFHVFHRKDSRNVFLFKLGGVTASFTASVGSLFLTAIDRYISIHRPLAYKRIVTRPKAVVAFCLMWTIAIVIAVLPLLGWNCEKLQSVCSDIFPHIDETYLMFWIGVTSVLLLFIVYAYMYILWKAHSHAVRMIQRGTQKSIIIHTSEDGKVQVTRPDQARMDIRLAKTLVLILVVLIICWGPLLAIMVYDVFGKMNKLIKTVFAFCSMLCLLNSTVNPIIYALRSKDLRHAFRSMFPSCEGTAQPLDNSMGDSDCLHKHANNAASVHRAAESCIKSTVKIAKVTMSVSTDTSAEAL
T10 sequence (P34972 whole entry): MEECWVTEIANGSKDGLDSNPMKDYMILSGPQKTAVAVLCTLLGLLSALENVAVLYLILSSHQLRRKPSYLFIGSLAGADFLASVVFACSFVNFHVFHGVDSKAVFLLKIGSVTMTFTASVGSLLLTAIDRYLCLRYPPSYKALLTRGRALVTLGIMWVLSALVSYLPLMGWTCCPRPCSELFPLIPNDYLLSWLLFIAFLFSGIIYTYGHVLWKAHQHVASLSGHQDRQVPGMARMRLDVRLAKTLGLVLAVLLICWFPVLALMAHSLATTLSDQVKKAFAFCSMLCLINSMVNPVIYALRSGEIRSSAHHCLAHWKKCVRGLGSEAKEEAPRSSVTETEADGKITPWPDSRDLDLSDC
Chain of Alkaline phosphatase, tissue-nonspecific isozyme (P05186 whole entry): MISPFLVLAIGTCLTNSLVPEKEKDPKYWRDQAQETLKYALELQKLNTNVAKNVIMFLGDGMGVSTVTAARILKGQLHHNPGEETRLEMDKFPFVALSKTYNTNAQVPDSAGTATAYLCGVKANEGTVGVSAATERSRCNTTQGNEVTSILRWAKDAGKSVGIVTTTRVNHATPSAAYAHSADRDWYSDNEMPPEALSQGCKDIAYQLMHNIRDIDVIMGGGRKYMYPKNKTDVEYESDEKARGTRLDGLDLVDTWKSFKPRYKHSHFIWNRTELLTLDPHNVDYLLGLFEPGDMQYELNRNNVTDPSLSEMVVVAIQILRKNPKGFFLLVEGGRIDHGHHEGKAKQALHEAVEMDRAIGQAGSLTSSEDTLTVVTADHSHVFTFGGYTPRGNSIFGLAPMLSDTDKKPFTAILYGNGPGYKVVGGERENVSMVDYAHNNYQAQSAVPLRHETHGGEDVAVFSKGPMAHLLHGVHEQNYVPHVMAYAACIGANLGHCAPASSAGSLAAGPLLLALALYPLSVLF
Chain of Intestinal-type alkaline phosphatase (Mus musculus, UniProt P24822) (P24822 whole entry): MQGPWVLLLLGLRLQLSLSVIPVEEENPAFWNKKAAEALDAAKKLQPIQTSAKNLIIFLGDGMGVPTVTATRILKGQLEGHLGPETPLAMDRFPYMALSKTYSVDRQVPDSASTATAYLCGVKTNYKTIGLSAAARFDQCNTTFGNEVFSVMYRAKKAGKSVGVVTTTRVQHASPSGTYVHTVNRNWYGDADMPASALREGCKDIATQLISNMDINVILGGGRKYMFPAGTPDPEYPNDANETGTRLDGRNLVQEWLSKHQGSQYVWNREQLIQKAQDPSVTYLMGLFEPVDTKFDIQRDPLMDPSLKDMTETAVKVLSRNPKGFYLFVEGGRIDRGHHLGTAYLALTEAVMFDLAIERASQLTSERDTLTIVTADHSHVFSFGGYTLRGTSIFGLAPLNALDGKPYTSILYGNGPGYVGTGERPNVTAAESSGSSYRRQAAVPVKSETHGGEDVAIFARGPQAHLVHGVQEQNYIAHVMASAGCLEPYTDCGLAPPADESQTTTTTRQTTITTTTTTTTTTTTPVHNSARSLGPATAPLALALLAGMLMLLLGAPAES

`Oc1nc(C(Cl)Cl)nc2sc3c(c12)CCN(Cc1ccccc1)C3` was tested, and the IC50 [1] was 9.04 µM (active), the IC50 [2] was 18.7 µM (active) and the IC50 [3] was 13.4 µM (active). For the same compound, the IC50 [4] was 2.89 µM (active), the IC50 [5] was 7.87 µM (active) and the IC50 [6] was 3.75 µM (not active). The EC50 [7] was > 53 µM (inactive).

`Cc1ccc(-c2csc(NC(=O)CSc3nc(C)cc(O)n3)n2)cc1` was tested, and the AC50 [8] was 10.6 µM (active).

In the case of `CCCC(=O)NCCc1cc2ccc(C)c(C)c2nc1O`, the IC50 [9] is reported as > 79.4 µM (inactive), the IC50 [10] is reported as > 79.4 µM (inactive) and the IC50 [11] is reported as > 79.4 µM (inactive).

For `COc1ccc2nc(N3C(=O)C(O)=C(C(=O)c4ccco4)C3c3ccc(C)o3)sc2c1` (configuration not stated), the IC50 [12] was 5 µM (active), the IC50 [13] was 1.2 µM (active) and the EC50 [14] was 5 µM (active).

In the case of `N=c1c(C(=O)NCCc2ccccc2)cc2c(=O)n3ccccc3nc2n1C1CCCC1`, the IC50 [15] is reported as > 32 µM (inactive), the IC50 [16] is reported as > 32 µM (inactive) and the EC50 [17] is reported as > 32 µM (inactive). The EC50 [18] was > 32 µM (inactive), the IC50 [19] was > 32 µM (inactive) and the EC50 [20] was 3.61 µM (active). For the same compound, the IC50 [21] was > 32 µM (inactive).

In the case of `COc1ccc(CN(Cc2ccccn2)C(=O)CN2C(=O)COc3ccccc32)cc1`, the IC50 [22] is reported as > 32 µM (inactive), the EC50 [23] is reported as > 32 µM (inactive) and the EC50 [24] is reported as > 10 µM (inactive). For the same compound, the IC50 [25] was > 32 µM (inactive), the IC50 [26] was > 32 µM (inactive) and the EC50 [27] was > 32 µM (inactive).

For `Nc1cccc(NC(=O)C2CC3CCC2C3)n1` (configuration not stated), the EC50 [28] was 1.81 µM (active).

`O=S(=O)(c1ccc(NC(=S)N/N=C/c2ccc(O)c(O)c2)cc1)N1CCOCC1` was tested, and the IC50 [29] was 38.4 µM (active), the IC50 [30] was 15.1 µM (active) and the IC50 [31] was 2.84 µM (active). The IC50 [32] was < 0.195 µM (active).
